# Laboratory results from patent US20130089504A1, “Compositions Comprising Enzyme-Cleavable Hydromorphone Prodrug” (priority 2010, published 2013).
# Tests used:
# [1] = In vivo tolerability of Compound PC-5 in rats (IV); details: rat IV
# Protocol: Male naïve Sprague-Dawley rats, 4 per dose, were used in the study. Rats were weighed, and then placed under a heat lamp for 15-20 minutes to dilate the lateral tail veins. Before dosing, rats were placed in Broome restrainers and the drug was introduced into one of the tail veins using a syringe and needle. […] Blood samples were collected 5 minutes post-dose via the saphenous vein. The rats were observed up to 24 hours.
# [2] = target: T1, trypsin (Bos taurus, UniProt P00760); experiment: In vitro trypsin conversion of prodrug Compound PC-5 to hydromorphone; format: biochemical; details: no trypsin inhibitor
# T1 construct: gene PRSS1
# T1 sequence (P00760 24-246): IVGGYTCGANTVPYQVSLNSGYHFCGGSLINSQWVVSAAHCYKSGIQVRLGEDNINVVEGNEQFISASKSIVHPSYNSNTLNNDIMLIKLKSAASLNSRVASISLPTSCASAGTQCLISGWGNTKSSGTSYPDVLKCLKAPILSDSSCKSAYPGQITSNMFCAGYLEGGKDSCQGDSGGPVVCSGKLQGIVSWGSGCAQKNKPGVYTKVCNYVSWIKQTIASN
# Protocol: Compound PC-5 was exposed to trypsin as described. […] A 5-minute 37° C. pre-incubation of the reaction mixture without prodrug was conducted and then the prodrug was added to initiate the incubation. The reaction was conducted at 37° C. for 24 hr.
# [3] = In vitro stability of Compound PC-5 to household chemicals and enzyme preparations; format: physicochemical; details: vodka, baking soda, WINDEX, vinegar at RT or 80° C.; GNC Super Digestive, tenderizer, subtilisn at RT; 1 or 24 hr
# Protocol: Samples were incubated as described. Aliquots were removed at 1 hr and 24 hr and stabilized by transferring each to a solution of 50% or 100% phosphoric acid to achieve a final pH of less than or equal to pH 4. The stabilized aliquots were then diluted 4- to 6-fold with water, vortex-mixed and applied to HPLC.
# The percentage of Compound PC-5 remaining after exposure is indicated by the solid black bars and percentage conversion of Compound PC-5 to hydromorphone is indicated by the lightly shaded bars with a black outline.
# [4] = Pharmacokinetics of hydromorphone prodrug following IV administration to rats; format: in vivo; details: male, Sprague Dawley; rat IV, PC-5 2 mg/kg (0.29 μmol/kg); plasma; read-out: PC-5 Cmax ± sd
smiles,measurement,setting,value
"CCN(CCNC(=O)[C@H](CCCCN)NC(=O)CC(=O)O)C(=O)Oc1ccc2c3c1O[C@H]1C(=O)CCC4[C@@H](C2)N(C)CC[C@@]341 (stereo partly drawn) [Compound PC-5, [2-((S)-2-malonylamino-6-amino-hexanoylamino)-ethyl]-ethyl-carbamic acid hydromorphone ester]",dose rats can tolerate,[1],9.7 µmol/kg
same,Clinical observations,"[1]; 33 mg/kg ([…]), observed up to 24 hours",Normal
same,trypsin-mediated release of hydromorphone,[2]; in vitro,trypsin can mediate release hydromorphone
same,"Rate of HM formation, Average ± sd","[2]; 0.761 mM prodrug, 0.02 to 0.0228 mg/ml trypsin, Tris pH 8, 37° C.",106 ± 2 umols/h/umol trypsin
same,half-life at 0.761 mM,"[2]; 0.761 mM prodrug, 0.02 to 0.0228 mg/ml trypsin, Tris pH 8, 37° C., read-out: Prodrug trypsin half-life, Average ± sd (converted)",2.81 ± 0.23 h
same,conversion of Compound PC-5 to hydromorphone,[3],less than 10%
same,Cmax,[4],3090 ± 360 ng/mL
